Source: patent US6593342B1, “Pharmaceutical compositions comprising 2-quinolones” (Laboratoire L. Lafon, priority 1998, dated 2003)

Key:
[1] = test system: lymphoma P 388; assay: In vivo antitumor activity, lymphoma P 388; set-up: species or system mouse; settings: Table IX; subcutaneous P 388 in CDF1 mice; compound 1 or 20 40 mg/kg 5/week from D5, 5 weeks; VCR 0.63 mg/kg 3/week from D5, 3 weeks
Protocol: (§1) 4.—In Vivo Antitumor Activity in Combination With a Cytotoxic Agent
(§2) The tests were carried out on models of:
(§3) in the presence or absence of cytotoxic agents such as cyclophosphamide, etoposide, doxorubicin or vincristine.
(§4) When the MTD value of a product was determined, its in vivo antitumor activity was characterized at doses of MTD/2, MTD/4 and MTD/8 on the model of mouse mammary adenocarcinoma HS-MXT and on the model of lymphoma P 388.
(§5) In all the examples presented below, irrespective of the model (mammary adenocarcinoma HS-MXT or lymphoma P 388), the control condition is represented by a batch of 9 mice to which is administered for 5 consecutive weeks and at a rate of 5 administrations (Monday, Tuesday, Wednesday, Thursday and Friday) per week a volume of 0.2 ml of physiological saline containing the solvent used to dissolve the various compounds of formulae (I) and (Ia) used.
(§6) i)—The survival rate of the mice
(§7) This survival rate was calculated in the form of a ratio T/C:
(§8) This ratio represents the average survival time of the median mouse from the batch of treated mice relative to the average survival time of the median mouse from the batch of control mice. Thus, a molecule induces a significant (P<0.05) increase in the survival of the animals when the index T/C exceeds 130%. Conversely, it has a toxic effect when this value of T/C is less than 70%.
4- to 6-week-old CDF1 mice are grafted with a piece of P 388 tumor (from a tumor bank maintained in the laboratory) subcutaneously into the right flank on day D0. In order to be under conditions close to clinical reality, we waited until the 5th day post-grafting (D5) before starting the treatment. The reason for this was that, after this period of time, the subcutaneous P 388 tumors are palpable.
Compound 1 is administered alone. The first injection of the product is carried out on the 5th day post-grafting (D5) at a rate of 5 injections per week (Monday, Tuesday, Wednesday, Thursday and Friday) for five consecutive weeks-and at a dose of 40 mg/kg.
Compound 20 is administered alone. […]

[2] = test system: hormone-sensitive mouse mammary adenocarcinoma MXT (HS-MXT); assay: In vivo antitumor activity, mouse mammary adenocarcinoma HS-MXT
Protocol: as §1, §2
hormone-sensitive mouse mammary adenocarcinoma MXT (HS-MXT),
as §3, §4, §5
The following parameters were determined in these tests:
as §6, §7, §8
ii)—The tumor growth [lacuna] by measuring the area of the grafted HS-MXT or P 388 tumors twice a week (Monday and Friday). This area is calculated by multiplying the values of the largest two perpendicular axes of the tumor. The value of these axes is measured using a sliding caliper.
The model of hormone-sensitive MXT (HS-MXT) mouse mammary adenocarcinoma grafted onto 4- to 6-week-old B6D2F1/JIco mice is derived from the milk ducts of the mammary gland (Watson C. et al. Cancer Res. 1977; 37: 3344-48).
Compound 1 is administered alone. The first injection of the product is carried out on the seventh day post-grafting (D7) for four consecutive weeks at a rate of 5 injections per week (Monday, Tuesday, Wednesday, Thursday and Friday) and at a dose of 20 mg/kg.
Cyclophosphamide (CPA) is administered alone. The first injection of the product is carried out on the fourteenth day post-grafting (D14) for three consecutive weeks at a rate of 3 injections per week (Monday, Wednesday and Friday) and at a dose of 10 mg/kg.
Compound 1 is co-administered with cyclophosphamide. In this case, the first injection of compound 1 is carried out on the seventh day post-grafting (D7) for four consecutive weeks at a rate of 5 injections per week (Monday, Tuesday, Wednesday, Thursday and Friday) at a dose of 20 mg/kg, and the first injection of cyclophosphamide is carried out on the fourteenth day post-grafting (D14) for three consecutive weeks at a rate of 3 injections per week (Monday, Wednesday and Friday) at a dose of 10 mg/kg.
Etoposide (ETO) is administered alone. The first injection of the product is carried out on the fourteenth day post-grafting (D14) for three consecutive weeks at a rate of 3 injections per week (Monday, Wednesday and Friday) and at a dose of 10 mg/kg.
Doxorubicin (DOX) is administered alone. The first injection of the product is carried out on the fourteenth day post-grafting (D14) for three consecutive weeks at a rate of 3 injections per week (Monday, Wednesday and Friday) and at a dose of 5 mg/kg.
Compound 1 is co-administered with etoposide.

Structure (SMILES)	T/C (survival) [1] [%]	T/C (survival) ([2]; Table IV, HS-MXT in B6D2F1/JIco mice, compound 1 20 mg/kg 5 injections/week from D7, 4 weeks, CPA 10 mg/kg 3 injections/week from D14, 3 weeks) [%]	T/C (survival) ([2]; Table V, HS-MXT in B6D2F1/JIco mice, compound 1 20 mg/kg 5/week from D7, 4 weeks, ETO 10 mg/kg or DOX 5 mg/kg 3/week from D14, 3 weeks) [%]	Tumor area, reduction (−) or increase (+) compared with control ([2]; Table VI, HS-MXT tumors, 31st day after graft, 19 administrations of compound 1 (20 mg/kg), 8 of cyclophosphamide (10 mg/kg)) [%]	T/C (survival) ([2]; Table VII, HS-MXT, compound 21 40 mg/kg 5/week from D7, 5 weeks, ETO 10 mg/kg 3/week from D7, 3 weeks) [%]
COc1ccc(-c2cc3c(OC)cc(OC)cc3[nH]c2=O)cc1 [CRL8246, 5,7-Dimethoxy-3-(4-methoxyphenyl)-1,2-dihydro-2-quinolinone]	120	100	95	−19.5	–
COc1ccc(-c2cc3c(OC)cc(OC)cc3n(CCC#N)c2=O)cc1 [CRL8247, 3-[5,7-Dimethoxy-3-(4-methoxyphenyl)-2-oxo-1,2-dihydro-1-quinolinyl]propanenitrile]	125	–	–	–	–
COc1ccc(-c2cc3c(OC)cc(OC)cc3n(CCc3nnn[nH]3)c2=O)cc1 [CRL8256, 1-[2-(1H-1,2,3,4-Tetrazol-5-yl)ethyl]-5,7-dimethoxy-3-(4-methoxyphenyl)-1,2-dihydro-2-quinolinone]	–	–	–	–	110
